Source: US10570122B2, “Compounds with anti-tumoral activity” (AB Science, priority 2015, dated 2020)

Experiments:
DLD1 = test: CellTiter-Blue cell-based survival/proliferation assay, DLD1; details: Homo sapiens, DLD-1; DLD_1 colorectal tumor cell line, 48 h
How it was run: (§1)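 Tenfold compound dilutions (0–10 μM) were added to 1·10^4 cells/well. Plates incubated 48 h at 37 °C. CellTiter-Blue reduction (4 h, 37 °C) was read as fluorescence at 590 nm, background-corrected with a cell-free blank.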

MDAMB231 = test: CellTiter-Blue cell-based survival/proliferation assay, MDAMB231; details: Homo sapiens, MDA-MB-231; MDAMB231 breast tumor cell line, 48 h
How it was run: as §1

ACHN = test: CellTiter-Blue cell-based survival/proliferation assay, ACHN; details: Homo sapiens; ACHN kidney tumor cell line, 48 h
How it was run: as §1

BXPC3 = test: CellTiter-Blue cell-based survival/proliferation assay, BXPC3; details: Homo sapiens, BXPC-3; BXPC3 pancreas tumor cell line, 48 h
How it was run: as §1

DU145 = test: CellTiter-Blue cell-based survival/proliferation assay, DU145; details: Homo sapiens, DU-145; DU145 prostate tumor cell line, 48 h
How it was run: as §1

REC1 = test: CellTiter-Blue cell-based survival/proliferation assay, REC1; details: Homo sapiens, Lymphoma cell line REC1, 48 h, read-out: Anti-tumoral activity (measured IC50) REC1
How it was run: as §1

PC3 = test: CellTiter-Blue cell-based survival/proliferation assay, PC3; details: Homo sapiens, PC-3; PC3 prostate tumor cell line, 48 h
How it was run: as §1

A549 = test: CellTiter-Blue cell-based survival/proliferation assay, A549; details: Homo sapiens; A549 lung tumor cell line, 48 h
How it was run: as §1

HGC27 = test: CellTiter-Blue cell-based survival/proliferation assay, HGC27; details: Homo sapiens, HGC-27; HGC27 stomach tumor cell line, 48 h
How it was run: as §1

KARPAS299 = test: CellTiter-Blue cell-based survival/proliferation assay, KARPAS299; details: Homo sapiens, KARPAS-299, Lymphoma cell line KARPAS299, 48 h, read-out: Anti-tumoral activity (measured IC50) KARPAS299
How it was run: as §1

AGS = test: CellTiter-Blue cell-based survival/proliferation assay, AGS; details: Homo sapiens; AGS stomach tumor cell line, 48 h
How it was run: as §1

HL60 = test: CellTiter-Blue cell-based survival/proliferation assay, HL60; details: Homo sapiens, HL-60, Leukemia cell line HL60, 48 h, read-out: Anti-tumoral activity (measured IC50) HL60
How it was run: as §1

H1299 = test: CellTiter-Blue cell-based survival/proliferation assay, H1299; details: Homo sapiens, NCI-H1299; H1299 lung tumor cell line, 48 h
How it was run: as §1

MESSA = test: CellTiter-Blue cell-based survival/proliferation assay, MESSA; details: Homo sapiens, MES-SA; MESSA ovary tumor cell line, 48 h
How it was run: as §1

PANC1 = test: CellTiter-Blue cell-based survival/proliferation assay, PANC1; details: Homo sapiens, PANC-1; PANC_1 pancreas tumor cell line, 48 h
How it was run: as §1

PLCPRF5 = test: CellTiter-Blue cell-based survival/proliferation assay, PLCPRF5; details: Homo sapiens, PLC-PRF-5; PLC_PRF5 liver tumor cell line, 48 h
How it was run: as §1

SW579 = test: CellTiter-Blue cell-based survival/proliferation assay, SW579; details: Homo sapiens; SW579 head & neck tumor cell line, 48 h
How it was run: as §1

CLS354 = test: CellTiter-Blue cell-based survival/proliferation assay, CLS354; details: Homo sapiens, CLS-354; CLS354_4 head & neck tumor cell line, 48 h
How it was run: as §1

[1] = system: panel of about 34 human tumor cell lines; test: Cell-based proliferation screening on panel of tumor cell lines; details: solid tumor cell line, cell line unknown, 48 h, read-out: IC50, solid tumor cell line of column 6 (last section of Table 3)
How it was run: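 CellTiter-Blue survival assay with 1·10^4 cells/well, each line treated 48 h at 37° C with 1/10 serial dilutions from 0 to 10 μM. Resorufin formed during a 4 h reagent incubation is read by fluorescence at 590 nm. A cell-free blank serves as background.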

TOV112D = test: CellTiter-Blue cell-based survival/proliferation assay, TOV112D; details: Homo sapiens; TOV112D ovary tumor cell line, 48 h
How it was run: as §1

HEP2 = test: CellTiter-Blue cell-based survival/proliferation assay, HEP2; details: Homo sapiens, HEp-2; HEP2 head & neck tumor cell line, 48 h
How it was run: as §1

BT20 = test: CellTiter-Blue cell-based survival/proliferation assay, BT20; details: Homo sapiens, BT-20; BT20 breast tumor cell line, 48 h
How it was run: as §1

A498 = test: CellTiter-Blue cell-based survival/proliferation assay, A498; details: Homo sapiens; A498 kidney tumor cell line, 48 h
How it was run: as §1

HCT116 = test: CellTiter-Blue cell-based survival/proliferation assay, HCT116; details: Homo sapiens, HCT-116; HCT116 colorectal tumor cell line, 48 h
How it was run: as §1

HEPG2 = test: CellTiter-Blue cell-based survival/proliferation assay, HEPG2; details: Homo sapiens; HEPG2 liver tumor cell line, 48 h
How it was run: as §1

CALU6 = test: CellTiter-Blue cell-based survival/proliferation assay, CALU6; details: Homo sapiens, Calu-6; CALU6 lung tumor cell line, 48 h
How it was run: as §1

[2] = system: human kinases (456 kinases); test: KINOMEscan in vitro kinase profiling; format: binding
Experimental: An in vitro kinase profiling was conducted in order to evidence the absence of protein kinase inhibition by the compounds of the invention.
DiscoveRx (Ambit Biosciences) has developed a high-throughput system (KINOMEscan™) for screening of compounds against large numbers of human kinases (456 kinases).
The compounds of the invention were screened at the concentration of 1 μM, and results for primary screen binding interactions were reported as percent control (% Ctrl), where lower numbers indicate stronger hits. DMSO is used as a negative control (100% Ctrl) while a high affinity compound is used as a positive control (0% Ctrl). % Ctrl is calculated as follow:
[formula] Selectivity Score or S-score is a quantitative measure of compound selectivity. It is calculated by dividing the number of kinases that compounds bind to by the total number of distinct kinases tested, excluding mutant variants. S(10)=(number of kinases with % Ctrl<10)/(number of kinases tested), S(1)=(number of kinases with % Ctrl<1)/(number of kinases tested).

OPM2 = test: CellTiter-Blue cell-based survival/proliferation assay, OPM2; details: Homo sapiens, OPM-2, Myeloma cell line OPM2, 48 h, read-out: Anti-tumoral activity (measured IC50) OPM2
How it was run: as §1

HUT78 = test: CellTiter-Blue cell-based survival/proliferation assay, HUT78; details: Homo sapiens, Lymphoma cell line HUT78, 48 h, read-out: Anti-tumoral activity (measured IC50) HUT78
How it was run: as §1

IC50 [1] [nM] | SMILES | IC50 (DLD1) [nM] | IC50 (MDAMB231) [nM] | IC50 (ACHN) [nM] | IC50 (BXPC3) [nM] | IC50 (DU145) [nM] | IC50 (REC1) [nM] | IC50 (PC3) [nM] | IC50 (A549) [nM] | IC50 (HGC27) [nM] | IC50 (KARPAS299) [nM] | IC50 (AGS) [nM] | IC50 (HL60) [nM] | IC50 (H1299) [nM] | IC50 (MESSA) [nM] | IC50 (PANC1) [nM] | IC50 (PLCPRF5) [nM] | IC50 (SW579) [nM] | IC50 (CLS354) [nM] | IC50 (TOV112D) [nM] | further results
≤ 100 | CCOCc1ccc(C)c(Nc2ncc(-c3ccc(-n4cccn4)cc3)o2)c1 [Example 033, (5-Ethoxymethyl-2-methyl-phenyl)-[5-(4-pyrazol-1-yl-phenyl)-oxazol-2-yl]-amine] | ≤ 100 | > 1000 | ≤ 100 | 100 to 500 | > 1000 | ≤ 100 | ≤ 100 | > 1000 | ≤ 100 | ≤ 100 | ≤ 100 | ≤ 100 | > 1000 | 100 to 500 | > 1000 | 500 to 1000 | > 1000 | ≤ 100 | ≤ 100 | IC50 (HEP2): ≤ 100 nM; IC50 (BT20): 100 to 500 nM; IC50 (A498): 100 to 500 nM; IC50 (HCT116): 100 to 500 nM; IC50 (HEPG2): 500 to 1000 nM; IC50 (CALU6): ≤ 100 nM; Interaction with the 456 kinases tested ([2]; screened at 1 μM): do not efficiently interact; Number of hits/number of kinases, S1 ([2]; tested at 1 μM, S(1): kinases with % Ctrl<1): 0/456; S-score, S1 ([2]; tested at 1 μM, S(1)=(number of kinases with % Ctrl<1)/(number of kinases tested)): 0.000; Number of hits/number of kinases, S10 ([2]; tested at 1 μM, S(10): kinases with % Ctrl<10): 1/456; S-score, S10 ([2]; tested at 1 μM, S(10)=(number of kinases with % Ctrl<10)/(number of kinases tested)): 0.002; Kinase targets, S10 ([2]; tested at 1 μM, kinases with % Ctrl<10): CDKL3; IC50 (OPM2): ≤ 100 nM; IC50 (HUT78): ≤ 100 nM
> 1000 | CCOCc1ccc(C)c(Nc2ncc(-c3ccc(N4CCN(CCNC(C)=O)C4=O)cc3)o2)c1 [Example 046, N-[2-(3-{4-[2-(5-Ethoxymethyl-(2-methyl-phenylamino))-oxazol-5-yl]-phenyl}-2-oxo-imidazolidin-1-yl)-ethyl]-acetamide] | > 1000 | > 1000 | > 1000 | > 1000 | > 1000 | > 1000 | > 1000 | > 1000 | > 1000 | > 1000 | > 1000 | > 1000 | > 1000 | > 1000 | > 1000 | > 1000 | > 1000 | > 1000 | > 1000 | IC50 (HEP2): > 1000 nM; IC50 (BT20): > 1000 nM; IC50 (A498): > 1000 nM; IC50 (HCT116): > 1000 nM; IC50 (HEPG2): > 1000 nM; IC50 (CALU6): > 1000 nM; IC50 (OPM2): > 1000 nM; IC50 (HUT78): > 1000 nM
500 to 1000 | CCOCc1ccc(C)c(Nc2ncc(-c3ccc(-c4ccccn4)cc3)o2)c1 [Example 048, (5-Ethoxymethyl-2-methyl-phenyl)-[5-(4-pyridin-2-yl-phenyl)-oxazol-2-yl]-amine] | > 1000 | > 1000 | > 1000 | > 1000 | > 1000 | 500 to 1000 | > 1000 | > 1000 | > 1000 | 500 to 1000 | > 1000 | 100 to 500 | > 1000 | > 1000 | > 1000 | > 1000 | > 1000 | 500 to 1000 | > 1000 | IC50 (HEP2): > 1000 nM; IC50 (BT20): > 1000 nM; IC50 (A498): > 1000 nM; IC50 (HCT116): > 1000 nM; IC50 (HEPG2): > 1000 nM; IC50 (CALU6): > 1000 nM; IC50 (OPM2): 500 to 1000 nM; IC50 (HUT78): 500 to 1000 nM
> 1000 | CCOCc1ccc(C)c(Nc2ncc(-c3ccc(-n4ccccc4=O)cc3)o2)c1 [Example 049, 1-{4-[2-(5-Ethoxymethyl-(2-methyl-phenylamino))-oxazol-5-yl]-phenyl}-1H-pyridin-2-one] | > 1000 | > 1000 | > 1000 | > 1000 | > 1000 | > 1000 | > 1000 | > 1000 | > 1000 | > 1000 | > 1000 | > 1000 | > 1000 | > 1000 | > 1000 | > 1000 | > 1000 | > 1000 | > 1000 | IC50 (HEP2): > 1000 nM; IC50 (BT20): > 1000 nM; IC50 (A498): > 1000 nM; IC50 (HCT116): > 1000 nM; IC50 (HEPG2): > 1000 nM; IC50 (CALU6): > 1000 nM; IC50 (OPM2): > 1000 nM; IC50 (HUT78): > 1000 nM
500 to 1000 | CCOCc1ccc(C)c(Nc2ncc(-c3ccc(-c4ccc[nH]c4=O)cc3)o2)c1 [Example 050, 3-{4-[2-(5-Ethoxymethyl-(2-methyl-phenylamino))-oxazol-5-yl]-phenyl}-1H-pyridin-2-one] | > 1000 | > 1000 | > 1000 | > 1000 | > 1000 | 500 to 1000 | > 1000 | > 1000 | > 1000 | 100 to 500 | > 1000 | 500 to 1000 | > 1000 | > 1000 | > 1000 | > 1000 | > 1000 | > 1000 | > 1000 | IC50 (HEP2): > 1000 nM; IC50 (BT20): > 1000 nM; IC50 (A498): > 1000 nM; IC50 (HCT116): > 1000 nM; IC50 (HEPG2): > 1000 nM; IC50 (CALU6): > 1000 nM; IC50 (OPM2): 500 to 1000 nM; IC50 (HUT78): > 1000 nM
